# Measurements as given in patent US5840721A, “Imidazole derivatives as MDR modulators” (Ontogen Corporation, priority 1997, dated 1998).
# Test system: CEM/VLB1000 cell line
# Experiment: Cytotoxicity potentiation: enhancement of vinblastine cytotoxicity in MDR cell line (alamar blue)
# Type: cell-based, human
# Conditions: Homo sapiens, midpoint of minimum and maximum cytotoxicity induced by 3-5 μg/mL vinblastine and compound, 48 hours incubation, alamar blue 24 hours, read-out: Cytotocicity Potentiation (EC50)
# Method: Multidrug-resistant cell lines are easily obtainable for in vitro determination of drug sensitization by compounds of the present invention. In vitro potentiation of antineoplastic cytotoxicity by the imidazole derivatives of the present invention was measured in both CEM/VLB1000 and SK/VLB1000 cell lines. The multidrug resistant cell lines were obtained from Dr. Victor Ling, Ontario Cancer Institute, Toronto, Canada. The CEM/VLB 1000 cell line was maintained as a suspension in minimum essential medium supplemented with 10% fetal bovine serum in a humidied atmosphere of 95% air and 5% CO2 while the SK/VLB 1000 cell line was maintained as adherent cells using the identical medium conditions as the CEM cells. The CEM/VLB 1000 cells were seeded at a density of 5×10^4 cells/well in a 96 well microtiter plate while the SK/VLB 1000 cell line was seeded at a density of 2,500 cells/well after trypsinization.
row,SMILES,EC50
1,CCOC/C=C/c1ccc(-c2nc3cc(OC)ccc3[nH]2)cc1 [Example 118],1000 nM
2,"CCOC/C=C/c1ccc(-c2nc(-c3ccc(N4CCOCC4)cc3)c(-c3ccc(N4CCOCC4)cc3)[nH]2)cc1 [Example 92, 2-[4-(3-ethoxy-trans-1-propen-1-yl)phenyl]-4,5-bis (4-N-morpholinophenyl) imidazole]",220 nM
3,"COC(=O)/C=C/c1ccc(-c2nc(-c3ccc(N4CCOCC4)cc3)c(-c3ccc(N4CCOCC4)cc3)[nH]2)cc1 [Example 71, 2-(trans-2-methoxycarbonyl-ethenylphenyl)-4,5-bis (4-N-morpholinophenyl) imidazole]",370 nM
4,"CNc1ccc(-c2nc(-c3ccc(/C=C/C(=O)OC)cc3)[nH]c2-c2ccc(N3CCOCC3)cc2)cc1 [Example 73, 2-(trans-2-methoxycarbonyl-ethenylphenyl)-4-(4-N-methylaminophenyl)5-(4-N-morpholinophenyl) imidazole]",340 nM
5,"CN(C)c1ccc(-c2nc(-c3ccc(/C=C/c4nc5ccccc5o4)cc3)[nH]c2-c2ccc(N(C)C)cc2)cc1 [Example 56, 2-[trans-2-(2-benzoxazolyl)ethenylphenyl]-4,5-bis (4-N,N-dimethylaminophenyl) imidazole]",550 nM
6,"COC/C=C/c1ccc(-c2nc(-c3ccc(N4CCCC4)cc3)c(-c3ccc(N4CCCC4)cc3)[nH]2)cc1 [Example 88, 2-[4-(3-methoxy-trans-1-propen-1-yl)phenyl]-4,5-bis (4-pyrrolidinophenyl) imidazole]",260 nM
7,"CCCCOC/C=C/c1ccc(-c2nc(-c3ccc(N(C)C)cc3)c(-c3ccc(N(C)C)cc3)[nH]2)cc1 [Example 85, 2-[4-(3-butoxy-trans-1-propen-1-yl)phenyl]-4,5-bis (4-N,N-dimethylaminophenyl) imidazole]",110 nM
8,"CCOC/C=C/c1ccc(-c2nc(-c3ccc(OC)cc3)c(-c3ccc(OC)cc3)[nH]2)cc1 [Example 102, 2-[4-(3-ethoxy-trans-1-propen-1-yl)phenyl]-4,5-bis (4-dimethoxyphenyl) imidazole]",350 nM
9,"CNc1ccc(-c2nc(-c3ccc(/C=C/C(=O)OC)cc3)[nH]c2-c2ccc(N3CCCC3)cc2)cc1 [Example 67, 2-(trans-2-methoxycarbonyl-ethenylphenyl)-4-(4-N-methylaminophenyl)5-(4-pyrrolidinophenyl) imidazole]",98 nM
10,"C=CCN(CC=C)c1ccc(-c2nc(-c3ccc(/C=C/C(=O)OC)cc3)[nH]c2-c2ccc(F)cc2)cc1 [Example 66, 2-(trans-2-methoxycarbonyl-ethenylphenyl)-4-(4-N,N-diallylaminophenyl)5-(4-fluoro-phenyl) imidazole]",850 nM
11,"CCOC/C=C/c1ccc(-c2nc(-c3ccc(NC)cc3)c(-c3ccc(N4CCOCC4)cc3)[nH]2)cc1 [Example 94, 2-[4-(3-ethoxy-trans-1-propen-1-yl)phenyl]-4-(4-N-methylaminophenyl) -5(4-N-morpholinophenyl) imidazole]",250 nM
12,"CCNc1ccc(-c2[nH]c(-c3ccc(/C=C/COCC)cc3)nc2-c2ccc(NC(C)C)cc2)cc1 [Example 120, 2-[4-(3-ethoxy-trans-1-propen-1-yl)phenyl]-4-(4-N-ethylaminophenyl)-5(4-N-isopropylaminophenyl) imidazole]",53 nM
13,"CCOC/C=C/c1ccc(-c2nc(-c3ccc(OC)cc3)c(-c3ccc(OC)cc3)n2CCCn2ccnc2)cc1 [Example 105, 1-(3-imidazole-1-yl-propyl)-2-[4-(3-ethoxy-trans-1-propen-1-yl)phenyl]-4,5bis (4-dimethoxyphenyl) imidazole]",650 nM
14,"CNc1ccc(-c2[nH]c(-c3ccc(/C=C/C(=O)OC)cc3)nc2-c2ccc(-n3ccnc3)cc2)cc1 [Example 70, 2-(trans-2-methoxycarbonyl-ethenylphenyl)-4-[4-(1-imidazolyl)phenyl]-5(4-N-methylaminophenyl) imidazole]",500 nM
15,"CN(C)c1ccc(-c2nc(-c3ccc(/C=C/S(C)(=O)=O)cc3)[nH]c2-c2ccc(N(C)C)cc2)cc1 [Example 96, 2-[4-trans-(2-methanesulfonyl-ethenyl)-phenyl]-4,5-bis (4-N,N-dimethylaminophenyl) imidazole]",730 nM
16,"CCOC/C=C/c1ccc(-c2nc(-c3ccc(OCC)cc3)c(-c3ccc(OCC)cc3)n2CCCn2ccnc2)cc1 [Example 106, 1-(3-imidazole-1-yl-propyl)-2-[4-(3-ethoxy-trans-1-propen-1-yl)phenyl]-4,5bis (4-diethoxyphenyl) imidazole]",380 nM
17,"CN(C)c1ccc(-c2nc(-c3ccc(/C=C/CO)cc3)n(C)c2-c2ccc(N(C)C)cc2)cc1 [Example 114, 1-methyl-2-[4-(3-hydroxy-trans-1-propen-1-yl)phenyl]-4,5-bis (4-N,N-dimethylaminophenyl) imidazole]",630 nM
18,"CCOC/C=C/c1ccc(-c2nc(-c3ccc(NC(C)C)cc3)c(-c3ccc(NC(C)C)cc3)[nH]2)cc1 [Example 119, 2-[4-(3-ethoxy-trans-1-propen-1-yl)phenyl]-4,5-bis-(4-N-isopropylaminophenyl) imidazole]",67 nM
19,"CCCN(CCC)c1ccc(-c2c[nH]c(-c3ccc(/C=C/COCC)cc3)n2)cc1 [Example 122, 2-[4-(3-ethoxy-trans-1-propen-1-yl)phenyl]-4-(4-N,N-dipropylphenyl) imidazole]",280 nM
20,"CCN(CC)c1ccc(-c2nc(-c3ccc(/C=C/c4nc5ccccc5o4)cc3)[nH]c2-c2ccc(NC)cc2)cc1 [Example 58, 2-[trans-2-(2-benzoxazolyl)ethenylphenyl]-4-(4-N,N-diethylaminophenyl)-5-(4-N-methylaminophenyl) imidazole]",470 nM
21,"CCOC/C=C/c1ccc(-c2nc(-c3ccc(NC(C)C)cc3)c(-c3ccc(F)cc3)[nH]2)cc1 [Example 121, 2-[4-(3-ethoxy-trans-1-propen-1-yl)phenyl]-4-(4-fluorophenyl)-5-(4-N-isopropylaminophenyl) imidazole]",120 nM
22,COCCNc1ccc(-c2[nH]c(-c3ccc(/C=C/C#N)cc3)nc2-c2ccc(N(C)C)cc2)cc1 [Example 65],250 nM
23,"CN(C)c1ccc(-c2nc(-c3ccc(N4CCOCC4)cc3)[nH]c2-c2ccc(N(C)C)cc2)cc1 [Example 97, 2-(4-N-morpholinophenyl)-4,5-bis (4-N,N-dimnethylaminophenyl) imidazole]",190 nM
24,"CCOC/C=C/c1ccc(-c2nc(-c3ccc(N(CC)CC)cc3)c[nH]2)cc1 [Example 108, 2-[4-(3-ethoxy-trans-1-propen-1-yl)phenyl]-4-(4-N,N-diethylphenyl) imidazole]",300 nM
25,"CCOC(=O)c1cc(-c2ccc(-c3nc(-c4ccc(N(C)C)cc4)c(-c4ccc(N(C)C)cc4)[nH]3)cc2)no1 [Example 98, 2-[4-(5-ethylcarboxyisoxazol-3-yl)-phenyl]-4,5-bis (4-N,N-dimethylamainophenyl) imidazole]",600 nM
26,"CC(=O)/C=C/c1ccc(-c2nc(-c3ccc(N(C)C)cc3)c(-c3ccc(N(C)C)cc3)[nH]2)cc1 [Example 116, 2-[4-(3-methylcarbonyl-trans-1-propen-1-yl)phenyl]-4,5-bis (4-N,N-dimethylaminophenyl) imidazole]",230 nM
27,"CCOC/C=C/c1ccc(-c2nc(-c3ccc(N(C)C)cc3)c(-c3ccc(N4CCOCC4)cc3)[nH]2)cc1 [Example 93, 2-[4-(3-ethoxy-trans-1-propen-1-yl)phenyl]-4-(4-N-dimethylaminophenyl)-5-(4-N-morpholinophenyl) imidazole]",150 nM
28,"CCOC/C=C/c1ccc(-c2nc(-c3ccc(OC(C)C)cc3)c(-c3ccc(OC(C)C)cc3)[nH]2)cc1 [Example 104, 2-[4-(3-ethoxy-trans-1-propen-1-yl)phenyl]-4,5-bis (4diisopropyloxyphenyl) imidazole]",250 nM
29,"COCCOC/C=C/c1ccc(-c2nc(-c3ccc(N(C)C)cc3)c(-c3ccc(N(C)C)cc3)[nH]2)cc1 [Example 84, 2-{4-[3-(2-methoxy-ethoxy)-trans-1-propen-1-yl]phenyl}-4,5-bis (4-N,N-dimethylaminophenyl) imidazole]",90 nM
30,"COC(=O)/C=C/c1ccc(-c2nc(-c3ccc(N(C)C)cc3)c(-c3ccc(N4CCOCC4)cc3)[nH]2)cc1 [Example 72, 2-(trans-2-methoxycarbonyl-ethenylphenyl)-4-(4-N-dimethylaminophenyl)-5-(4-N-morpholinophenyl) imidazole]",320 nM

# Same assay, conditions: midpoint of minimum and maximum cytotoxicity induced by 3-5 μg/mL vinblastine and compound, 48 hours incubation, alamar blue 24 hours, read-out: Cytotocicity Potentiation (EC50)
row,SMILES,EC50
1,"CNc1ccc(-c2[nH]c(-c3ccc(/C=C/COc4ccc(OC)c(OC)c4)cc3)nc2-c2ccc(N(C)C)cc2)cc1 [Example 79, 2-{4-[3-(3,4-dimethoxy-phenoxy)-trans-1-propen-1-yl]phenyl}-4-(4-N-dimethylaminophenyl)-5-(4-N-methylaminopheny) imidazole]",1210 nM
2,"CCN(CC)C/C=C/c1ccc(-c2nc(-c3ccc(N(C)C)cc3)c(-c3ccc(N(C)C)cc3)[nH]2)cc1 [Example 80, 2-[4-(3-N,N-diethylamino-trans-1-propen-1-yl)phenyl]-4,5-bis (4-N,N-dimethylaminophenyl) imidazole]",880 nM
3,"CNc1ccc(-c2[nH]c(-c3ccc(/C=C/COc4ccccc4)cc3)nc2-c2ccc(N(C)C)cc2)cc1 [Example 78, 2-[4-(3-phenoxy-trans-1-propen-1-yl)phenyl]-4-(4-N-dimethylaminophenyl)-5-(4-N-methylaminopheny) imidazole]",450 nM
